From patent publication US20160120848A1, “SPECIFIC CANCER TREATMENT REGIMES WITH GANETESPIB” (SYNTA PHARMACEUTICALS CORP., priority 2013, published 2016)

Legend:
[1] = system: cancers with genetic profiles driven by strong Hsp90 clients; test: Earlier clinical results for ganetespib, monotherapy and with taxanes; format: in vivo
Source text: The clinical study aims to achieve this goal by using ganetespib to target what may be a central driver of ovarian cancer aggressiveness and metastatic ability, namely mutant p53.

[2] = system: advanced non-small-cell lung cancer (NSCLC) of non-squamous histology; test: Phase I study of ganetespib in combination with docetaxel in advanced NSCLC; format: in vivo, patients; conditions: ganetespib 150 mg/m^2 in combination with docetaxel (75 or 60 mg/m^2)
Experimental: In the first cohort (Cohort 1), patients with advanced solid tumor malignancies are treated with 75 mg/m^2 of ganetespib monotherapy. In the second cohort (Cohort 2), patients with advanced solid tumor malignancies are treated with 150 mg/m^2 of ganetespib monotherapy. In the third cohort (Cohort 3), patients with advanced NSCLC are treated with ganetespib (150 mg/m^2) in combination with docetaxel (75 mg/m^2). In the case of intolerability of the third cohort's combination regimen, in a fourth cohort (Cohort 4), patients with advanced NSCLC are treated with ganetespib (150 mg/m^2) in combination with docetaxel (60 mg/m^2).
Patients with advanced NSCLC, excluding patients with squamous cell histology, are administered ganetespib and docetaxel in Cohort 3.
The purpose of this cohort is to explore the PK and tolerability of ganetespib in combination with docetaxel. Patients enrolled in this cohort receive ganetespib 150 mg/m^2 in combination with docetaxel 75 mg/m^2.
On Day 1 of each 3-week treatment cycle, ganetespib and docetaxel are administered as separate 1-hour intravenous infusions. Administration of ganetespib precedes the administration of docetaxel. There is a 1-hour “rest” period following the end of the ganetespib infusion and prior to docetaxel infusion.
On Day 15, patients receive 150 mg/m^2 single-agent ganetespib administered via a 1-hour intravenous infusion. […]

[3] = system: triple-negative breast cancer; test: Phase 3 study of ganetespib in combination with docetaxel; format: in vivo, patients; conditions: ganetespib 150 mg/m^2 in combination with docetaxel 75 mg/m^2
Source text: This is an open-label, multicenter, randomized Phase 3 study of patients with triple-negative breast cancer (TNBC). Eligible patients are previously untreated for their advanced or metastatic disease and have measurable disease as defined by Response Evaluation Criteria in Solid Tumors (RECIST). Patients are randomized in a 1:1 ratio to receive either ganetespib in combination with docetaxel or docetaxel alone. The study compares the efficacy and tolerability of ganetespib in combination with docetaxel versus docetaxel alone.
The study enrolls approximately 300 patients over a planned 30-month period, and patients are randomized into one of two treatment arms:
Arm A (combination arm): Ganetespib 150 mg/m^2 in combination with docetaxel 75 mg/m^2. On Day 1 of each 3-week treatment cycle, ganetespib and docetaxel are administered as separate 1-hour intravenous infusions. Administration of ganetespib precedes the administration of docetaxel. There is a 1-hour “rest” period following the end of the ganetespib infusion prior to docetaxel infusion. Ganetespib 150 mg/m^2 is administered again on Day 15 of each cycle […]
Clinical and laboratory parameters are assessed to evaluate disease status and toxicity in all patients. […] The post-dose ECG is recorded within approximately 60 minutes after the end of the ganetespib infusion or as soon as feasible. […]

[4] = combination of ganetespib and taxanes

CC(C)c1cc(-c2n[nH]c(=O)n2-c2ccc3c(ccn3C)c2)c(O)cc1O [ganetespib]
activity [1, 4]: favorable | safety profile [1, 4]: favorable | tumor responses ([1]; ganetespib monotherapy, cancers with genetic profiles driven by strong Hsp90 clients): durable objective tumor responses | efficacy [2]: efficacious | efficacy [3]: efficacious | safety profile [3]: good safety profile
